Nine substances from US10000555B2, “Monomethylvaline compounds having phenylalanine side-chain modification at the C-terminus” (Seattle Genetics, Inc., priority 2005, dated 2018) can be followed below.

Holding throughout (assay type): cell-based
One experiment deals with Caki-1. Briefly: In vitro cytotoxicity of h1F6-MC-val-cit-PAB-MMAZ conjugates on CD70+ cell line Caki-1. The conditions noted are these: Caki-1 renal cell carcinoma, approximately 4 drugs per antibody. The method, then:
(§1) The cytotoxic activity of MMAZ and antibody-drug conjugates is evaluated on the CD70+ positive cell lines, for example, Caki-1, renal cell carcinoma; L428, Hodgkin's disease; U251, glioblastoma. To evaluate the cytotoxicity of compounds, cells can be seeded at approximately 5-10,000 per well in 150 μl of culture medium, then treated with graded doses of compounds in quadruplicates at the initiation of assay. Cytotoxicity assays are usually carried out for 96 hours after addition of test compounds. Fifty μl of resazurin dye may be added to each well during the last 4 to 6 hours of the incubation to assess viable cells at the end of culture. Dye reduction can be determined by fluorescence spectrometry using the excitation and emission wavelengths of 535 nm and 590 nm, respectively. For analysis, the extent of resazurin reduction by the treated cells can be compared to that of the untreated control cells.
(§2) To evaluate the cytotoxicity of conjugates, cells are seeded at approximately 5-10,000 per well in 150 μl of culture medium and then treated with graded doses of conjugates in quadruplicates at the initiation of assay. Cytotoxicity assays are carried out for 96 hours after addition of test compounds. Fifty μl of the resazurin dye is added to each well during the last 4 to 6 hours of the incubation to assess viable cells at the end of culture. Dye reduction is determined by fluorescence spectrometry using the excitation and emission wavelengths of 535 nm and 590 nm, respectively. For analysis, the extent of resazurin reduction by the treated cells is compared to that of the untreated control cells.

In the next experiment the test system is L428. The experiment in a line: In vitro cytotoxicity of h1F6-MC-val-cit-PAB-MMAZ conjugates on CD70+ cell line L428. The following applies: for IC50 (ng/mL) of h1F6-MC-val-cit-PAB-MMAZ conjugates on CD70+ cell lines, L428: L428 Hodgkin's disease, approximately 4 drugs per antibody. The method, then: as §1, §2
A further experiment has as its system U251. The experiment in a line: In vitro cytotoxicity of h1F6-MC-val-cit-PAB-MMAZ conjugates on CD70+ cell line U251. The conditions noted are these: U251 glioblastoma, approximately 4 drugs per antibody. The procedure: as §1, §2

Turning to “Maleimidocaproyl-Val-Cit-PAB-MeVal-Val-Dil-Dap-2-Chloro-Phe-OH [SP3-a]”, the “IC50 (ng/mL) of h1F6-MC-val-cit-PAB-MMAZ conjugates on CD70+ cell lines, Caki-1” value (shortened to “IC50 (ng/mL) … Caki-1”) in the experiment on Caki-1 was 4.4 ng/mL. Further, the “IC50 (ng/mL) of h1F6-MC-val-cit-PAB-MMAZ conjugates on CD70+ cell lines, L428” value (“IC50 (ng/mL) … L428” for short) in the experiment on L428 is listed as 8 ng/mL. In the experiment on U251, the “IC50 (ng/mL) of h1F6-MC-val-cit-PAB-MMAZ conjugates on CD70+ cell lines, U251” value (shortened to “IC50 (ng/mL) … U251”) worked out at 8 ng/mL.

Take “Maleimidocaproyl-Val-Cit-PAB-MeVal-Val-Dil-Dap-3-(3-pyridyl)-L-Ala-OH [SP3-h]”: the “IC50 (ng/mL) … Caki-1” value in the experiment on Caki-1 is 16 ng/mL. In addition, the “IC50 (ng/mL) … L428” value in the experiment with L428 turned out to be 12 ng/mL. Moreover, the “IC50 (ng/mL) … U251” value with U251 was 16 ng/mL.

As for “Maleimidocaproyl-Val-Cit-PAB-MeVal-Val-Dil-Dap-Glu(OtBu)-OH [SP3-l]”, the “IC50 (ng/mL) … Caki-1” value with Caki-1 is given as 51 ng/mL. Also, in the experiment with L428 (@ 141 ng/ml), the “Maximum inhibition, L428” value was “Maximum inhibition = 12% @ 141 ng/ml”. For the same substance, in the experiment on U251, the “IC50 (ng/mL) … U251” value came out at 43 ng/mL.

For “Maleimidocaproyl-Val-Cit-PAB-MeVal-Val-Dil-Dap-L-β-homophe-OH [SP3-d]”, the “IC50 (ng/mL) … Caki-1” value with Caki-1 is 9 ng/mL. In addition, the “IC50 (ng/mL) … L428” value in the experiment with L428 came out at 33 ng/mL. The “IC50 (ng/mL) … U251” value in the experiment on U251 is 11 ng/mL.

In the case of “Maleimidocaproyl-Val-Cit-PAB-MeVal-Val-Dil-Dap-Met-OH [SP3-j]”, the “IC50 (ng/mL) … Caki-1” value in the experiment on Caki-1 came to 18 ng/mL. In the experiment on L428, the “IC50 (ng/mL) … L428” value came to 43 ng/mL. The “IC50 (ng/mL) … U251” value in the experiment with U251 is on record as 23 ng/mL.

With “Maleimidocaproyl-Val-Cit-PAB-MeVal-Val-Dil-Dap-Tic-OH [SP3-c]”, the “IC50 (ng/mL) … Caki-1” value with Caki-1 came to 28 ng/mL. The “Maximum inhibition, L428” value with L428 (@ 1000 ng/ml) is “Maximum inhibition = 12% @ 1000 ng/ml”. Further, the “IC50 (ng/mL) … U251” value in the experiment on U251 came out at 20 ng/mL.

Consider “Maleimidocaproyl-Val-Cit-PAB-MeVal-Val-Dil-Dap-Trp(Boc)-OH [SP3-k]”, for which the “IC50 (ng/mL) … Caki-1” value in the experiment on Caki-1 is on record as 6 ng/mL. The “IC50 (ng/mL) … L428” value with L428 stood at 11 ng/mL. Further, in the experiment with U251, the “IC50 (ng/mL) … U251” value was determined as 7.5 ng/mL.

As to “Maleimidocaproyl-Val-Cit-PAB-MeVal-Val-Dil-Dap-p-Amino-Phe-OH [SP3-e]”, in the experiment with Caki-1, the “IC50 (ng/mL) … Caki-1” value is reported as “No effect”. Also, the “Maximum inhibition, L428” value in the experiment on L428 (@ 100 ng/ml) is listed as “Maximum inhibition = 10% @ 100 ng/ml”. Further, in the experiment on U251, the “IC50 (ng/mL) … U251” value is recorded as “No effect”.

In the case of “Maleimidocaproyl-Val-Cit-PAS-MeVal-Val-Dil-Dap-Me-Phe-OH [SP3-b]”, the “IC50 (ng/mL) … Caki-1” value in the experiment with Caki-1 was determined as 6 ng/mL. The “IC50 (ng/mL) … L428” value in the experiment with L428 is 6 ng/mL. Further, in the experiment with U251, the “IC50 (ng/mL) … U251” value is 8 ng/mL.
